# From patent publication US9408856B2, “Topical steroidal formulations” (Temple University—Of The Commonwealth System of Higher …, priority 2008, dated 2016)
# Entries after “also recorded” stand apart in the source; their conditions may differ.
# Key:
# [1] = tested on: TPA-stimulated epidermal hyperplasia in mouse skin; experiment: TPA-stimulated epidermal hyperplasia in mouse skin, subcutaneous fluasterone; type: in vivo, mice; conditions: subcutaneous injection
# Experimental: In dose-response experiments the anti-hyperplastic efficacy of fluasterone in TPA-treated mouse epidermis to determine bioavailability following different routes of administration was measured. Mice were treated with a single dose of fluasterone (either orally, subcutaneously, or transdermally) followed by a single application of TPA to the shaved back one hour latter. In case of transdermal administration, fluasterone is applied in a topical formulation to the shaved abdomen to allow for systemic absorption to the back of the animal. Twenty hours after TPA application, the mice are injected with 60 μCi of [3H] thymidine, sacrificed 20 minutes later, and a 2×2 cm2 of skin from the shaved back is excised and processed for the determination of the amount of [3H] thymidine incorporated per unit of epidermal DNA. (Hennings et. al., Cancer Res. 28:543-552, 1968).
# [2] = tested on: dexamethasone-induced thymic and splenic atrophy; experiment: Dexamethasone-induced thymic and splenic atrophy in mice; type: in vivo, CD-1 mice; conditions: for protection against DEX-induced thymic and splenic atrophy: CD-1 mice
# Experimental: Administration of dehydroepiandrosterone (DHEA, 60 mg/kg, s.c.) for three days partially reverse thymic and splenic atrophy induced by a single injection of dexamethasone (1.6 mg/mouse). In this experiment, the efficacy of either 10 mg/kg or 20 mg/kg DHEA administered s.c. versus the effect of 10 mg/kg or 20 mg/kg fluasterone was investigated.
# 5% Cremophor (polyethoxylated castor oil; Sigma Chemicals)-95% saline vehicle was prepared using 95 mL of sterile 0.9% NaCl (filtered through sterile 0.22 micron filter) and 5 mL of Cremophor. The Cremophor was dissolved by swirling for approximately 5 minutes.
# Dexamethasone solutions were prepared by dissolving dexamethasone (Sigma Chemicals) in absolute ethanol. For example, 71.9 mg of dexamethasone was dissolved in 2.9 mL of absolute ethanol. In order to prevent precipitation, the solution was kept on a hotplate between injections.
# For the 10 mg/kg suspension, 25.7 mg of DHEA was weighed out, transferred to a glass scintillation vial, and 10.3 mL of the Cremophor-saline vehicle was added. The DHEA suspension was homogenized using a Tissumizer at 80% power for 30 sec. The Tissumizer was rinsed with 70% ethanol prior to homogenization. After the 10 mg/kg DHEA suspension was homogenized the probe was rinsed 2× with 50 mL of absolute ethanol, then with 50 mL of 70% ethanol, and then dried with sterile gauze. For the 20 mg/kg DHEA suspension, 50.9 mg DHEA was suspended in 10.2 mL of Cremophor-saline vehicle.
# 19.4 mg of fluasterone was weighed out and transferred to a glass scintillation vial. 7.8 mL of Cremophor-saline vehicle was added to the vial and the contents of the vial were homogenized with a Tissumizer as described previously. Prior to preparing the 20 mg/kg fluasterone, the probe was rinsed 2× with 50 mL of absolute ethanol and 1× with 50 mL of 70% ethanol. For the 20 mg/kg suspension, 47.0 mg was weighed out and transferred to a glass scintillation vial. 9.4 mL of Cremophor-saline vehicle was added to the vial and the contents of the vial were homogenized with a Tissumizer as described above.
# Female CD-1 mice, 43-45 days old, were obtained from Charles River Laboratories. The mice were housed 5 per cage in plastic shoebox cages with ad libitum access to Purina chow 5015 and water in the Pharmacy CAF with 12 hr of alternating light and darkness.
# Prior to the experiment the mice were weighed, separated into 6 groups containing 5 mice each and treated as follows:
# Mice were treated s.c. with 0.1 mL of 5% Cremophor-95% saline for three days. On the third day, the mice were also treated s.c. with 1.6 mg of dexamethasone dissolved in 0.06 mL of absolute. ethanol.
# Mice were treated s.c. with 0.25 mg of DHEA suspended in 0.1 mL of 5% Cremophor-95% saline for three days. On the third day, the mice were also treated s.c. with 1.6 mg of dexamethasone dissolved in 0.06 mL of absolute ethanol.
# Mice were treated s.c. with 0.5 mg of DHEA suspended in 0.1 mL of 5% Cremophor-95% saline for three days. On the third day, the mice were also treated s.c. with 1.6 mg of dexamethasone dissolved in 0.06 mL of absolute ethanol.
# Mice were treated s.c. with 0.25 mg of fluasterone suspended in 0.1 mL of 5% Cremophor-95% saline for three days. On the third day, the mice were also treated s.c. with 1.6 mg of dexamethasone dissolved in 0.06 mL of absolute ethanol.
# Mice were treated s.c. with 0.5 mg of fluasterone suspended in 0.1 mL of 5% Cremophor-95% saline for three days. On the third day, the mice were also treated s.c. with 1.6 mg of dexamethasone dissolved in 0.06 mL of absolute ethanol.
# All s.c. injections were made in the nape. All mice were lightly anesthetized while the s.c. injections were done.
# Twenty-four hours after dexamethasone treatment, the mice were euthanized by an overdose of isoflurane. The spleen and thymus were removed, cleaned of any adventitia, rinsed, blotted on filter paper, and weighed. […]
# [3] = Table 12, 10 mg/kg s.c. 3 days + dexamethasone 1.6 mg s.c. on day 3, 24 h after dexamethasone
# [4] = Table 12, 20 mg/kg s.c. 3 days + dexamethasone 1.6 mg s.c. on day 3, 24 h after dexamethasone
# [5] = Table 14, micronized steroid 10 mg/kg + dexamethasone
# [6] = Table 14, micronized steroid 20 mg/kg + dexamethasone
# [7] = Table 15, steroid 10 mg/kg in Cremophor-saline + dexamethasone
# [8] = Table 16, steroid 5 mg/kg + dexamethasone
# [9] = Table 16, steroid 10 mg/kg + dexamethasone
structure (smiles),measurement,setting,value
"C[C@]12CCCCC1=CC[C@@H]1[C@@H]2CC[C@]2(C)C(=O)[C@H](F)C[C@@H]12 [Fluasterone, 16α-fluoro-5-androsten-17-one]",lowest effective dose which abolishes TPA-stimulated epidermal hyperplasia,[1],2.5 to 5 mg/kg
same,protection against DEX-induced thymic and splenic atrophy,[2]; 5 mg/kg,significant protection
same,protection against DEX-induced thymic and splenic atrophy,[2]; 10 mg/kg,highly active; also recorded: as active as DHEA at 60 mg/kg
same,potency relative to DHEA in protecting against dexamethasone-induced thymic and splenic atrophy,"[2]; Example 8, micronized",about 6 ×
same,Body Weight,[2]; [3],24.3 ± 1.0
same,Spleen wt,[2]; [3],77.5 ± 14.4
same,Spleen wt/BW,[2]; [3],3.2 ± 0.5
same,Thymus wt,[2]; [3],60.9 ± 5.2
same,Thymus wt/BW,[2]; [3],2.5 ± 0.3
same,Body Weight,[2]; [4],25.2 ± 0.6
same,Spleen wt,[2]; [4],73.9 ± 13.8
same,Spleen wt/BW,[2]; [4],2.9 ± 0.6
same,Thymus wt,[2]; [4],60.8 ± 5.3
same,Thymus wt/BW,[2]; [4],2.4 ± 0.2
same,Body Weight,[2]; [5],26.7 ± 3.6
same,Spleen wt,[2]; [5],83.0 ± 6.2
same,Spleen wt/BW,[2]; [5],3.1 ± 0.3
same,Thymus wt,[2]; [5],68.0 ± 11.5
same,Thymus wt/BW,[2]; [5],2.5 ± 0.3
same,Body Weight,[2]; [6],27.2 ± 3.1
same,Spleen wt,[2]; [6],83.1 ± 7.9
same,Spleen wt/BW,[2]; [6],3.1 ± 0.4
same,Thymus wt,[2]; [6],66.3 ± 9.0
same,Thymus wt/BW,[2]; [6],2.4 ± 0.2
same,Body Weight,[2]; [7],24.8 ± 0.8
same,Spleen wt,[2]; [7],80.0 ± 7.7
same,Spleen wt/BW,[2]; [7],3.2 ± 0.4
same,Thymus wt,[2]; [7],67.5 ± 3.9
same,Thymus wt/BW,[2]; [7],2.7 ± 0.2
same,Body Weight,[2]; [8],25.7 ± 1.7
same,Spleen wt,[2]; [8],62.0 ± 10.2
same,Spleen wt/BW,[2]; [8],2.4 ± 0.3
same,Thymus wt,[2]; [8],50.8 ± 10.9
same,Thymus wt/BW,[2]; [8],2.0 ± 0.3
same,Body Weight,[2]; [9],25.2 ± 1.4
same,Spleen wt,[2]; [9],89.4 ± 12.3
same,Spleen wt/BW,[2]; [9],3.5 ± 0.4
same,Thymus wt,[2]; [9],65.6 ± 4.4
same,Thymus wt/BW,[2]; [9],2.6 ± 0.2
same,Approximate Potency Compared to Fluasterone in Protecting Against DEX-induced Thymic and Splenic Involution,"[2]; fluasterone = 1, mice",1
same,rank of activity among steroids tested against DEX-induced thymic and splenic involution,[2]; mice,most active steroid tested
same,rank of activity among steroids tested against DEX-induced thymic and splenic involution,"[2]; mice, listed as fluasterone",most potent compound
